Measurements as given in paper PMC4104029, “Mechanism of Action of Compound-13: An α1-Selective Small Molecule Activator of AMPK” (Chemistry & Biology, 2014).

Assays:
[1] = target: T1, AMPKα1β1γ2 with β1 Δ1–185 (ΔCBD) (Homo sapiens, UniProt Q13131+Q9UGJ0); assay: AMPKα1β1γ2 mutagenesis, activation assay; type: biochemical; conditions: 1 μM C2; complex purified from COS1 cells
T1 construct: made in house; host or cells: COS1 cells (transient transfection, FLAG-M2 purification)
Experimental: (§1) Figure 2 C2 Is a Partial Agonist of α2 Complexes and Selectively Protects α1 Complexes against Dephosphorylation by PP2C (A and B) Recombinant AMPKα1β1γ1 (A) or AMPKα2β1γ1 (B) was assayed in the presence of AMP (30 μM) and increasing concentrations of C2 (0–20 μM). Results are expressed as fold increase in activity relative to controls without ligand and represent the mean ± SD for three independent experiments. (C and D) The effects of C2 and AMP on dephosphorylation and inactivation of AMPKα1β1γ1 (C) and α2β1γ1 (D) by PP2Cα (present in all assay conditions). Results are expressed as a percentage of control reactions performed in the absence of Mg^2+ and represent the mean ± SD of three independent experiments. Representative blots of pT172 and total AMPKα are shown below the bar charts. […] Results are expressed as the fold increase in activity relative to controls in the absence of compound and represent the mean ± SD for three independent experiments. […]
(§2) Competitive elution of AMPKγ2 from ATP-Sepharose. […] Resin was pelleted at low speed and the resulting supernatant analysed for the presence of AMPKγ2 by SDS-PAGE and staining with colloidal Coomassie (Generon). […]

AMPKα1β1γ2 with γ2 R531G = target: T2, AMPKα1β1γ2 with γ2 R531G (Homo sapiens, UniProt Q13131+Q9UGJ0, R531G); assay: AMPKα1β1γ2 mutagenesis, activation assay; type: biochemical; conditions: 1 μM C2; complex purified from COS1 cells
T2 construct: made in house; host or cells: COS1 cells (transient transfection, FLAG-M2 purification)
T2 sequence (Q13131 whole entry): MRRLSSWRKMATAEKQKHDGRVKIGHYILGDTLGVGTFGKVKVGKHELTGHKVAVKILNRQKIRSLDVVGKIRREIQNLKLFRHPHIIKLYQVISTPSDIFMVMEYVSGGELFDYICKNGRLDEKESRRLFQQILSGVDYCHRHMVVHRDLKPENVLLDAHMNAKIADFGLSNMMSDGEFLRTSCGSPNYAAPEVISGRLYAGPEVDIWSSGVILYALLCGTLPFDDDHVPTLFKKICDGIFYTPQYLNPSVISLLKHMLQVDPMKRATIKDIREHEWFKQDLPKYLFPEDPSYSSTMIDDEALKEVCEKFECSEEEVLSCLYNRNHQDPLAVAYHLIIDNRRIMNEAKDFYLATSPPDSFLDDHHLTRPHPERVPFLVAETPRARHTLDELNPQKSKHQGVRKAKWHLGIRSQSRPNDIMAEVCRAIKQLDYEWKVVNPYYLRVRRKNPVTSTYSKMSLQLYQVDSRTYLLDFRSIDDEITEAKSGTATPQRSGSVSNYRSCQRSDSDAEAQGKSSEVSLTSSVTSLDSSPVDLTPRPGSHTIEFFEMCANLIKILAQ
T2 sequence (Q9Y478 whole entry partner): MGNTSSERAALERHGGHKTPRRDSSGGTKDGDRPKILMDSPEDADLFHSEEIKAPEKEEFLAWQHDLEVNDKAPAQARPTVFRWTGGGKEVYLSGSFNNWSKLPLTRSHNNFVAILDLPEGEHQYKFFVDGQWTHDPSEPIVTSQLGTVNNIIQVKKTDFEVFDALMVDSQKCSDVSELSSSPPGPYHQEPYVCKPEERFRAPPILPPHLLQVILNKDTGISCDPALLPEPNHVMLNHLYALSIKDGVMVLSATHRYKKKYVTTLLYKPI
T2 sequence (Q9UGJ0 whole entry R531G): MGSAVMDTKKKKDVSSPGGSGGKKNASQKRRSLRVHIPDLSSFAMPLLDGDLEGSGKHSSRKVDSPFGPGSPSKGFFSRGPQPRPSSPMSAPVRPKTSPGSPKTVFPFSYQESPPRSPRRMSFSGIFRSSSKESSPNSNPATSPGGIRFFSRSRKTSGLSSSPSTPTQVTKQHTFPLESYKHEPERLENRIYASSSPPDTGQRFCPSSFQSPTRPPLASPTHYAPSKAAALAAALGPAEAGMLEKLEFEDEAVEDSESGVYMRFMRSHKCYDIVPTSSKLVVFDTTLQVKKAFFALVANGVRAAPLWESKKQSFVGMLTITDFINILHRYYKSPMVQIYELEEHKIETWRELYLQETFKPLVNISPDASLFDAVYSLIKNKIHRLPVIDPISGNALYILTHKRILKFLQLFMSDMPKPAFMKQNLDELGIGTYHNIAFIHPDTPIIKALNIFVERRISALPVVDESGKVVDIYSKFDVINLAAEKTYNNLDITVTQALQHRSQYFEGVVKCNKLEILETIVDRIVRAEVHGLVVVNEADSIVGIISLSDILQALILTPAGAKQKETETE
Experimental: as §1, §2

T1 sequence (Q13131 whole entry, stated change not applied): as the sequence (Q13131 whole entry) above
T1 sequence (Q9Y478 186-270 partner): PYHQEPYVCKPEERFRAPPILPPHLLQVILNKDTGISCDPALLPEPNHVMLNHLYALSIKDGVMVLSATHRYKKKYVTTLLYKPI
T1 sequence (Q9UGJ0 whole entry, stated change not applied): as the sequence (Q9UGJ0 whole entry R531G) above, with G531R counted along it

O=P(O)(O)c1ccc(-c2cc(O)on2)o1 [Compound C2, 5-(5-hydroxyl-isoxazol-3-yl)-furan-2-phosphonic acid]
activation of mutant complex [1]: unaffected
stimulation of mutant complex (AMPKα1β1γ2 with γ2 R531G): failed to stimulate
